# Reference: PubChem BioAssay (NCI)
# “And” between values parts separate entries of the source, which are not always exact repeats. Equal values may be shown once.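 The compound was tested at five concentrations on cells cultured in 96-well plates, with a 48-hour exposure period. GI50 marks 50% less growth. The concentration for full growth arrest is given as TGI.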
# What was measured:
# Test in all cases: NCI-60 cell line screen, 48 h
# A549 NSCLC = test system: A549 NSCLC
# ACHN renal = test system: ACHN renal
# CCRF-CEM leukemia = test system: CCRF-CEM leukemia
# COLO 205 colon = test system: COLO 205 colon
# HCC-2998 colon = test system: HCC-2998 colon
# HCT-15 colon = test system: HCT-15 colon
# MDA-MB-435 = test system: MDA-MB-435
# SN12C renal = test system: SN12C renal
# SNB-75 CNS = test system: SNB-75 CNS
# SR leukemia = test system: SR leukemia
SMILES,GI50 (A549 NSCLC) [µM],TGI (A549 NSCLC),GI50 (ACHN renal),TGI (ACHN renal),GI50 (CCRF-CEM leukemia) [µM],TGI (CCRF-CEM leukemia),GI50 (COLO 205 colon) [µM],TGI (COLO 205 colon) [µM],GI50 (HCC-2998 colon) [µM],TGI (HCC-2998 colon) [µM],GI50 (HCT-15 colon),TGI (HCT-15 colon) [µM],GI50 (MDA-MB-435),TGI (MDA-MB-435),GI50 (SN12C renal),TGI (SN12C renal),GI50 (SNB-75 CNS),TGI (SNB-75 CNS),GI50 (SR leukemia),TGI (SR leukemia) [µM]
COc1ccc(-n2cc(-c3cc(OC)c(OC)c(OC)c3)c(C(=O)C(F)(F)F)c2C)cc1,28,> 100 µM,54.6 µM,> 100 µM,16.1,> 100 µM,65.2,> 100,> 100,> 100,59.4 µM,> 100,43.3 µM,> 100 µM,28.6 µM,> 100 µM,13.8 µM,> 100 µM,4.54 µM,> 100
O/N=C/C1C(OCc2ccccc2)C(OCc2ccccc2)C(OCc2ccccc2)CN1Cc1ccccc1 (configuration not stated),–,25 µM and > 100 µM,15.2 µM and 4.4 µM,37.4 µM and > 100 µM,–,71.2 µM and > 100 µM,12.3,25.2,–,> 100,25.7 µM and 9.77 µM,> 100,14.1 µM and 3.14 µM,33.6 µM and 27.1 µM,20.6 µM and 4.32 µM,62 µM and > 100 µM,11.5 µM and > 100 µM,33.1 µM and > 100 µM,8.3 µM and 2 µM,> 100
CN(C)N=Nc1ccc(NC=O)cc1,–,> 100 µM,–,> 100 µM,–,> 100 µM,–,> 100,–,> 100,–,> 100,–,> 100 µM,–,> 100 µM,–,> 100 µM,–,> 100
COc1ccc2c(c1)CCCC(Br)C2=O (configuration not stated),–,> 43.6 µM,–,20.7 µM,–,1.48 µM,–,10.9,–,> 100,–,12.7,–,5.99 µM,–,9.13 µM,–,27.9 µM,–,24.6
